Results on seven molecules are retold here after patent US20120035187A1 (priority 2009, published 2012).

Assay [1] has as its system PC12-HS cells. The assay is described as follows: Evaluation A: neurocyte (cell)-growth-promoting action, ALAMAR BLUE. As to conditions: for Cell survival percentage (%): cell-growth promotion; for optimum concentration for exhibiting cell-growth-promoting action: from Table 9. In kind it is cell-based, rat. The protocol:
Then, the effects of test samples were judged as follows:
The relative value of 140 to 199: Equivalent effect to that of NK-4, symbol (∘); The relative value of 200 or higher: Stronger effect than that of NK-4, symbol ([…]). • The results are in Table 6.
The relative fluorescent intensity of each well was determined by using the fluorescent intensity of each well with cells, which had been cultured by admixing with D-MEM medium containing 10% by volume of FBS without any of the compounds, and the intensity of the resulting culture was regarded as 100%. The results are expressed as cell survival percentages (%) in Table 9. […]
The test was conducted twice for each test sample in a triplicate manner and the data were averaged.
Seven compounds as in Table 17, NK-234, NK-26, NK-9815, NK-9694, NK-28 and NK-147 as well as NK-4, were each dissolved in DMSO to give a concentration of 5 mg/ml. […] The test was conducted twice for each test sample in a triplicate manner and the data were averaged.
(The colour change of resazurin is a common sign of viable cells or microbes.)

Assay [2] relates to ICR mice administered with amyloid β fragment. The assay is described as follows: Degeneration or defect of hippocampal pyramidal cells, mouse administered with amyloid β fragment, agents of Example 1. In kind it is in vivo. As to conditions: 4-point grade score none (0) to severe (3), average of 10 mice; agent of Example 1, 0.3 ml/head intraperitoneally once a day up to the 8th day. The protocol:
(§1) One hundred and thirty ICR mice (commercialized by Charles Liver Laboratories Japan Inc., Kanagawa, Japan) were randomly divided into 13 groups, consisting of 10 mice in each group. Amyloid β fragment, represented by an amino acid sequence of SEQ ID NO: 1, used in Experiment 3 was aged at 37° C. for four days, and administered to the lateral ventricle of each mouse in an amount of 9 nmol/6 μl/mouse (the administration method is referred to “Brain Research”, Vol. 706, pp. 181-193 (1996)). […] The mice (10 heads) in the remaining one group were intraperitoneally administered with a sterilized 10% maltose solution (pyrogen-free) once a day up to the 8th day in an amount of 0.3 ml/mouse (control). On the 8th day after the administration, novel object recognition test (see, Japanese Patent Kokai No. 2008-193941) was performed and the average discrimination index (the ratio of prolonged seeking time for novel object to the total seeking time) as a cognitive function index were shown in Table 26. On the 9th day after the administration, the brain of the mice was anatomically isolated, prepared into tissue samples in conventional manner. Depositions of aggregation of amyloid fragment were observed by staining with Congo red or thioflavin T, and degeneration or defect of hippocampal pyramidal cells concerned with cognitive function. The degeneration or the defect of hippocampal pyramidal cells was evaluated by 4-point grade score, by regarding the condition of the control without administration of amyloid β fragment as “none (O)”, “slight (1)”, “moderate (2)”, and “sever (3)”, and the average scores of 10 mice are shown in Table 20.

Assay [3] has the same test system. Description: Novel object recognition test, mouse administered with amyloid β fragment, agents of Example 1. Type of assay: in vivo. Details: key: (novel − memorized seeking time)/(novel + memorized seeking time). As to conditions: agent of Example 1, 0.3 ml/head intraperitoneally once a day up to the 8th day. The protocol:
as §1
An experiment apparatus (a glass box of 30 cm in depth, 45 cm in width, and 30 cm in height) and two kinds of objects to be memorized by mice were provided. On the day before the test, the mice were allowed to seek freely in the experiment apparatus with no seeking object for 10 minutes for acclimation. On the test day, the following test was performed twice at an interval of 60 minutes. In the first trial, the same two objects were placed in the apparatus at its both ends, and the mouse was allowed to seek freely for 10 minutes. On the second trial, one of the objects used in the first test was replaced with a different kind of object, and then the mouse was allowed to seek freely for five minutes. In each experiment, when the mouse brought its muffle close to the object within 1-cm apart from the object, or made its muffle or whiskers to contact with the object, the mouse was judged to have a seeking behavior, and the seeking time thereof was measured. The object discrimination index [={(seeking time for novel object)−(seeking time for memorized object)}/{(seeking time of novel object)+(seeking time of memorized object)}] was calculated. The object discrimination index means the ratio of an increased seeking time for novel object to the total seeking time, and the ratio becomes larger when the memory of the once sought object was more strongly held, and it becomes smaller when the memory was more weakly held.

Assay [4] relates to PC12-HS cells. The assay is described as follows: Evaluation B: neurite-outgrowth action in presence of NGF. Type of assay: cell-based, rat. As to conditions: for Evaluation B: Neurite-outgrowth action: 50 μl of 400 ng/ml test sample solution per well + NGF final 5 ng/ml.
Assay [5] concerns PC12-HS cells. The assay is described as follows: Cytotoxicity by amyloid β fragment, cell survival (Evaluation C). Type of assay: cell-based. As to conditions: PC12-HS cells + amyloid β fragment. The method, then:
A plurality of peptide fragments (called “AMYLOID β FRAGMENT” commercialized by AnaSpec, Inc., CA, USA, each peptide having the amino acid sequence of SEQ ID NO:1), which have an amino acid sequence positioning from 25th to 35th from the N-terminus of amyloid R peptide with human origin and have been recognized as a main factor of neurocyte death in Alzheimer's disease, were diluted with phosphate buffered saline (PBS) to give a concentration of 2 mM, and used after being aged at 37° C. for six hours to coagulate them to increase their cytotoxicity before use. […] Viability (%) of cells in each well was determined and shown in Table 1 by calculating a relative value when the fluorescent intensity of the control was regarded as 100%. While, the supernatant of cell culture, which had been cultured under the same conditions as above, was removed, and the resulting cells were fixed by the addition of 1% by volume of glutaraldehyde, which had been prepared by diluting with PBS, in a volume of 100 μl/well for 30 min. Thereafter, the cells were stained with […] Hoechst 33258 dye commercialized by SIGMA Corporation, Tokyo, Japan, for five min, observed at a magnitude corresponding to a visual filed containing about 100 cells under a phase contrast microscope and a fluorescent microscope, and counted. The occupied percentage (%) of cells with apoptosis against the total cells in one visual field was calculated and the data was also shown in Table 1. The judgment of cells with apoptosis was made with an index of fragmentation of cell nuclei and chromatin aggregation within the nuclei.
Then, the effect of the above-compounds' concentrations on the cytotoxicity by amyloid β fragment was further investigated. The above 6-compounds and NK-4 were used as test samples, and the protective effects of these compounds against cytotoxicity by amyloid β fragment were evaluated by the same conditions as used in Evaluation C in Experiment 3, except for adding each compound to a well inoculated with PC12-HS cells to give a final concentration as shown in Table 7.

Setting [6] is: compound concentration 25 ng/ml.
[7] abbreviates: compound concentration 50 ng/ml.
Setting [8] is: compound concentration 100 ng/ml.
[9] abbreviates: compound concentration 200 ng/ml.
Where [10] appears, read: compound concentration 80 ng/ml.
[11] abbreviates: compound concentration 400 ng/ml.
The mark [12] stands for this setting: compound concentration 2000 ng/ml.
Where [13] appears, read: compound concentration 10000 ng/ml.
[14] abbreviates: no compound = 100%, final concentration 12.5 ng/ml.
Setting [15] is: final concentration of compound 12.5 ng/ml.
[16] abbreviates: final concentration of compound 50 ng/ml.
The mark [17] stands for this setting: final concentration of compound 200 ng/ml.
The mark [18] stands for this setting: final concentration of compound 800 ng/ml.
Where [19] appears, read: final concentration of compound 400 ng/ml.
Where [20] appears, read: final concentration of compound 1600 ng/ml.

Regarding `CCCCCCCN1C=CC(=CC=C(C=Cc2cc[n+](CCCCCCC)c3ccccc23)c2cc[n+](CCCCCCC)c3ccccc23)c2ccccc21.[I-].[I-]` [NK-28], the “Action of enhancing cell growth (%)” value is 146 ± 10% in assay [1] (setting [6]), 111 ± 28% in assay [1] (setting [7]), 252 ± 65% in assay [1] (setting [8]) and 470 ± 17% in assay [1] (setting [9]). For the same molecule, in assay [2], the “Degeneration/defluxion of hippocampal pyramidal cell” value (“Degeneration/defluxion” for short) is 1.4. In assay [3], the Object discrimination index turned out to be 0.2. The “Action on neurite outgrowth (%)” value in assay [4] (setting [10]) turned out to be 38 ± 1%; in assay [4] (setting [11]), 64 ± 10%; in assay [4] (setting [12]) it was 70 ± 11%; in assay [4] (setting [13]) it was 46 ± 20%.
In the case of `CCN1/C(=C/C=C(/C=C/c2sc3ccccc3[n+]2CC)c2sc3ccccc3[n+]2CC)Sc2ccccc21.[I-].[I-]` [NK-100], the “Cell survival percentage (%)” value in assay [1] (final concentration 50 ng/ml) stood at 288 ± 19%; in assay [1] (final concentration 200 ng/ml), 202 ± 4%; in assay [1] (final concentration 800 ng/ml) it was 82 ± 15%; in assay [1] (setting [14]) it was 154 ± 156%; in assay [5] (setting [15]), 47 ± 2%; in assay [5] (setting [16]), 88 ± 12%. Moreover, the “Cell survival percentage (%)” value in assay [5] (setting [17]) amounted to 60 ± 5%; in assay [5] (setting [18]), 44 ± 4%. Further, the “optimum concentration for exhibiting cell-growth-promoting action” value in assay [1] came out at 50 ng/mL. Besides, in assay [2], the “Degeneration/defluxion” value was 0.9. The Object discrimination index in assay [3] turned out to be 0.1. For the same molecule, the “Evaluation B: Neurite-outgrowth action” value in assay [4] (3 days) is “∘ (The test sample with a neurite outgrowth rate of 30% or higher was judged to be equivalent or more (∘) compared with NK-4)”. Besides, the “Rate of cells exhibiting neurite outgrowth (%)” value in assay [4] (setting [17]) was found to be 36 ± 2%; in assay [4] (setting [19]) it was 40 ± 8%; in assay [4] (setting [18]), 52 ± 7%; in assay [4] (setting [20]), 89 ± 6%.
For `CCCCCCCCN1C=CC(=CC=C(C=Cc2cc[n+](CCCCCCCC)c3ccccc23)c2cc[n+](CCCCCCCC)c3ccccc23)c2ccccc21.[I-].[I-]` [NK-147], the “Action of enhancing cell growth (%)” value in assay [1] (setting [6]) came to 122 ± 14%; in assay [1] (setting [7]), 136 ± 30%; in assay [1] (setting [8]), 163 ± 60%; in assay [1] (setting [9]), 404 ± 76%. Besides, the “Degeneration/defluxion” value in assay [2] amounted to 1.5. For the same molecule, in assay [3], the Object discrimination index came to 0.2. Also, the “Action on neurite outgrowth (%)” value in assay [4] (setting [10]) was found to be 32 ± 7%; in assay [4] (setting [11]), 50 ± 5%; in assay [4] (setting [12]) it was 70 ± 11%; in assay [4] (setting [13]) it was 35 ± 14%.
As to `CCCCCCCCCN1C(C)=CS\C1=C/C=C(\C=C\c1scc(C)[n+]1CCCCCCCCC)c1scc(C)[n+]1CCCCCCCCC.[I-].[I-]` [NK-393], in assay [1] (100 μl/well of 100 ng/ml test solution, 3 days, control = 100), the “Action of enhancing cell growth (%)” value amounted to 550%. Further, the “Degeneration/defluxion” value in assay [2] came out at 1.1. Further, in assay [3], the Object discrimination index came to 0.2. For the same molecule, the “Percentage (%) of cells with neurite outgrowth” value in assay [4] (50 μl/well of 2 μg/ml test solution + NGF final 5 ng/ml, 3 days) is given as 68%.
Regarding `CN(C)c1ccc(/C=C/c2oc3ccccc3[n+]2C)cc1` [NK-528], the “Degeneration/defluxion” value in assay [2] came out at 2.2. Moreover, the “Cell survival percentage (%)” value in assay [5] (setting [15]) stood at 40 ± 9%; in assay [5] (setting [16]), 36 ± 4%; in assay [5] (setting [17]), 50 ± 10%; in assay [5] (setting [18]), 111 ± 7%. In addition, the Object discrimination index in assay [3] came to 0.3. Further, in assay [4] (3 days), the “Evaluation B: Neurite-outgrowth action” value is “∘ (The test sample with a neurite outgrowth rate of 30% or higher was judged to be equivalent or more (∘) compared with NK-4)”.
Take `CC[n+]1ccccc1/C=C/c1ccc(N(C)C)cc1` [NK-557]: the “Cell survival percentage (%)” value in assay [1] (final concentration 50 ng/ml) was 110 ± 6%; in assay [1] (final concentration 200 ng/ml) it was 241 ± 48%; in assay [1] (final concentration 800 ng/ml), 184 ± 42%; in assay [1] (setting [14]) it was 97 ± 25%; in assay [5] (setting [15]), 36 ± 3%; in assay [5] (setting [16]) it was 114 ± 9%. The “Cell survival percentage (%)” value in assay [5] (setting [17]) was determined as 94 ± 11%; in assay [5] (setting [18]), 73 ± 1%. For the same molecule, the “optimum concentration for exhibiting cell-growth-promoting action” value in assay [1] was found to be 200 ng/mL. In assay [2], the “Degeneration/defluxion” value worked out at 2.1. In addition, the Object discrimination index in assay [3] worked out at 0.4. Moreover, in assay [4] (3 days), the “Evaluation B: Neurite-outgrowth action” value is reported as “∘ (The test sample with a neurite outgrowth rate of 30% or higher was judged to be equivalent or more (∘) compared with NK-4)”. The “Rate of cells exhibiting neurite outgrowth (%)” value is reported as 10> % in assay [4] (setting [17]), 20 ± 2% in assay [4] (setting [19]), 43 ± 5% in assay [4] (setting [18]) and 84 ± 42% in assay [4] (setting [20]).
Turning to `COc1ccc2oc(/C=C/c3ccc(N(C)C)cc3)[n+](C)c2c1` [NK-1516], the “Degeneration/defluxion” value in assay [2] is given as 1.9. For the same molecule, the “Cell survival percentage (%)” value in assay [5] (setting [15]) is 34 ± 5%; in assay [5] (setting [16]), 29 ± 5%; in assay [5] (setting [17]), 31 ± 3%; in assay [5] (setting [18]) it was 70 ± 11%. The Object discrimination index in assay [3] is given as 0.4. In addition, the “Evaluation B: Neurite-outgrowth action” value in assay [4] (3 days) is recorded as “∘ (The test sample with a neurite outgrowth rate of 30% or higher was judged to be equivalent or more (∘) compared with NK-4)”.
